Experimental data as given in US5773464A, “C-10 epoxy taxanes” (Bristol-Myers Squibb Company, priority 1997, dated 1998).
Read-outs that look alike come from different tables or passages of the source.

Tested on: HCT-116 human colon carcinoma cells
Test: Cytotoxicity assay (MTS), 72 hour exposure
Assay type: cell-based
Conditions: HCT-116, 72 h, read-out: Cytotoxicity Assay IC50 (nM) against HCT 116 Human colon tumor cell line
Method: Cytoxicity was assessed in HCT-116 human colon carcinoma cells by MTS (3-(4,5-dimethylthiazol-2-yl)-5-(3-carboxymethoxyphenyl)-2-(4-sulphenyl)-2H-tetrazolium, inner salt) assay as reported in T. L. Riss, et. al., "Comparison of MTT, XTT, and a novel tetrazolium compound MTS for in vitro proliferation and chemosensitivity assays.," Mol. Biol. Cell 3 (Suppl.):184a, 1992. Cells were plated at 4,000 cell/well in 96 well microtiter plates and 24 hours later drugs were added and serial diluted. The cells were incubated at 37° form 72 hours at which time the tetrazolium dye, MTS at 333 μg/ml (final concentration), in combination with the electron coupling agent phenazine methosulfate at 25 μM (final concentration) was added. A dehydrogenase enzyme in live cells reduces the MTS to a form that absorbs light at […] which can be quantitated spectrophotometrically. The greater the absorbance the greater the number of live cells. The results are expressed as an IC50, which is the drug concentration required to inhibit cell proliferation (i.e. absorbance at 450 nm) to 50% of that of untreated control cells. The IC50 values for compounds evaluated in this assay are evaluated in Table I.
^1 Cytoxicity was determined after a 72 hour exposure by MTS assay.

[1] = 72 hour exposure, MTS assay, test comparing Ie with paclitaxel, run on a different day

Row | Structure (SMILES) | IC50 (72 hour exposure, MTS assay, test comparing Ia with paclitaxel) [nM] | IC50 [1] [nM] | IC50 [nM]
1 | CC(=O)O[C@H]1C(=O)[C@@]2(C)[C@H]([C@H](OC(=O)c3ccccc3)[C@]3(O)C[C@H](OC(=O)[C@H](O)[C@@H](NC(=O)c4ccccc4)c4ccccc4)C(C)=C1C3(C)C)[C@]1(OC(C)=O)CO[C@@H]1C[C@@H]2O [paclitaxel] | 2.9 | 1 | –
2 | COCO[C@H]1C[C@H]2OC[C@@]2(OC(C)=O)[C@H]2[C@H](OC(=O)c3ccccc3)[C@]3(O)C[C@H](OC(=O)[C@H](O)[C@@H](NC(=O)c4ccccc4)c4ccccc4)C(C)=C(C4(CO4)C(=O)[C@]12C)C3(C)C (stereo partly shown) [Compound Ie] | – | 1.5 | –
3 | CC(=O)O[C@@]12CO[C@@H]1C[C@H](O)[C@@]1(C)C(=O)C3(CO3)C3=C(C)[C@@H](OC(=O)[C@H](O)[C@@H](NC(=O)c4ccccc4)c4ccccc4)C[C@@](O)([C@@H](OC(=O)c4ccccc4)[C@H]21)C3(C)C (stereo partly shown) [Compound Ia] | – | – | 2
